Measurements as given in US20100029554A1, “Composition and Methods for Treatment of Congestive Heart Failure” (Amylin Pharmaceuticals, Inc., priority 2006, published 2010).
Where no end group is shown, it is not given here.

Legend:
Plasma stability = assay type: in vitro ADME; details: 20 μg/mL in plasma, 37° C., 0-5 hours
Experimental: To assess stability, the compound of interest is spiked into plasma at a concentration of 20 μg/mL. It is incubated at 37° C. for 0, 1, 2 3, 4, 5 hours in triplicate. At each time point, MeOH is added to a 96 well microtiter plate and then sample is added in a ratio of 1 part sample to 4 parts MeOH to quench the digestion reaction. Samples are mixed with multi-channel pipette or liquid handler. The plate is then centrifuged for 10 minutes and placed in an autosampler kept at 10° C. Samples are then injected into a mass spectrometer (API 3000, Applied Biosystems) equipped with an autosampler (Leap HTC Pal) and HPLC pumps (Shimadzu LC-10ADVP).

NH/Swiss mice = assay: Glucose lowering assay; assay type: in vivo, mouse; details: IP, 2 nmol/kg, change in blood glucose relative to vehicle
Experimental: Female NH/Swiss mice (˜8-20 weeks of age), (Harlan, Indianapolis, Ind., USA), housed 3 mice per cage, are allowed ad libitum access to food and water until the start of the experiment. At two hours prior to treatment, access to food is restricted.
At the time of treatment, the tip of the tail is pricked with a needle to obtain 1 μl blood as a “pre-treatment” control blood sample. Immediately thereafter, each mouse is injected intraperitoneally (IP) with a test sample (1 nmol/kg or 2 nmol/kg) or 200 μl vehicle (10% DMSO saline). Additional blood samples are collected at 30, 60, 120, 180, and 240 minutes after injection.
Blood glucose is measured with a glucose oxidase biosensor (OneTouch® Ultra® (LifeScan, Inc., a Johnson & Johnson Company, Milpitas, Calif.)). At each time point, the effect of the test sample is expressed as the percent change in blood glucose relative to mice injected with vehicle only. Test samples and vehicle controls are also compared to their respective “pre-treatment” controls.
Significant test sample effects are identified by ANOVA (p<0.05). Where a significant difference existed, test means are compared to the control mean with Dunnett's post test using GraphPad Prism version 4.00 for Windows, GraphPad Software, San Diego Calif. USA, www.graphpad.com).

[1] = tested on: GLP/GIP/CT cyclase, RIN-m5F cells; assay: GLP/GIP/CT Cyclase (RIN) assay; assay type: cell-based, rat; details: cAMP, values without **
Experimental: GLP/GIP/CT Cyclase (RIN) Assay
Five μl of serially diluted peptides are transferred to the 384-well assay plate. Rat pancreas insulinoma cells (RIN-m5F) are detached from a tissue culture flask with Versene and washed once in buffer. Then RIN-m5F cells are resusupended in buffer at 2.5×10^6 cells/ml. Then 10 μl cells (2.5×10^4 cells) are added to all wells of the assay plate and cells are stimulated at room temperature in the dark for 30 minutes. The reaction is terminated with 10 μl of lysis buffer and incubated at room temperature for 4 hrs in the dark. cAMP content is measured using Perkin Elmer AlphaScreen™ cAMP assay kit and results are read on a Perkin Elmer Fusion fluorometer. The assay is completed in 384-well plates at 25 microliter volumes.

Row | Compound | plasma stability as compared to native GLP-1 (Plasma stability) | GLU LOWERING AUC240 @2 nmol/kg (NH/Swiss mice) [%] | plasma stability as compared to native GLP-1 (Plasma stability; second, narrower list of b152) | EC50 [1] [nM]
1 | CC[C@H](C)[C@H](NC(=O)[C@H](Cc1ccccc1)NC(=O)[C@H](CC(C)C)NC(=O)[C@H](CCCNC(=N)N)NC(=O)[C@@H](NC(=O)[C@H](C)NC(=O)[C@H](CCC(=O)O)NC(=O)[C@H](CCC(=O)O)NC(=O)[C@H](CCC(=O)O)NC(=O)[C@H](CC(C)C)NC(=O)[C@H](Cc1ccc(O)cc1)NC(=O)[C@H](CCC(=O)O)NC(=O)[C@@H](NC(=O)[C@@H](NC(=O)[C@H](CC(=O)O)NC(=O)[C@H](CC(N)=O)NC(=O)[C@@H](NC(=O)[C@H](Cc1ccc(O)cc1)NC(=O)[C@@H](NC(=O)CNC(=O)[C@H](CCC(=O)O)NC(=O)CNC(=O)[C@@H](N)Cc1c[nH]cn1)[C@@H](C)O)[C@@H](C)O)C(C)C)[C@@H](C)O)C(C)C)C(=O)N[C@@H](CCC(=O)O)C(=O)N[C@@H](Cc1c[nH]c2ccccc12)C(=O)N[C@@H](CC(C)C)C(=O)N[C@@H](CCCCN)C(=O)N[C@@H](CC(N)=O)C(=O)NCC(=O)NCC(=O)N1CCC[C@H]1C(=O)N[C@@H](CO)C(=O)N[C@@H](CO)C(=O)NCC(=O)N[C@@H](C)C(=O)N1CCC[C@H]1C(=O)N1CCC[C@H]1C(=O)N1CCC[C@H]1C(=O)N[C@@H](CO)C(N)=O [Cmpd 5271] | increased plasma stability | −17 |  | 
2 | CC[C@H](C)[C@H](NC(=O)[C@H](Cc1ccccc1)NC(=O)[C@H](CCC(=O)O)NC(=O)[C@H](CCCCN)NC(=O)[C@H](C)NC(=O)[C@H](C)NC(=O)[C@H](CCC(N)=O)NC(=O)CNC(=O)[C@H](CCC(=O)O)NC(=O)[C@H](CC(C)C)NC(=O)[C@H](Cc1ccc(O)cc1)NC(=O)[C@H](CO)NC(=O)[C@H](CO)NC(=O)[C@@H](NC(=O)[C@H](CC(=O)O)NC(=O)[C@H](CO)NC(=O)[C@@H](NC(=O)[C@H](Cc1ccccc1)NC(=O)[C@@H](NC(=O)CNC(=O)[C@H](CCC(=O)O)NC(=O)[C@H](C)NC(=O)[C@H](Cc1c[nH]cn1)NC(=O)COCCOCCNC(=O)[C@@H]1CCCN1C(=O)[C@H](C)NC(CCc1ccccc1)C(=O)O)[C@@H](C)O)[C@@H](C)O)C(C)C)C(=O)N[C@@H](C)C(=O)N[C@@H](Cc1c[nH]c2ccccc12)C(=O)N[C@@H](CC(C)C)C(=O)N[C@H](C(=O)N[C@@H](CCCCN)C(=O)NCC(=O)N[C@@H](CCCNC(=N)N)C(N)=O)C(C)C (stereo partly drawn) [Cmpd 4983, (R,S)-1-[N2-(1-carboxy-3-phenylpropyl)-L-ala]-L-pro-ado-GLP-1-(7-36) amide] | increased plasma stability |  | increased plasma stability | 
3 | GLP-1-(7-37)-GG-(S)-2,6-diamino-1-(thiazolidin-2-cyano-3-y1)hexan-1-one amide (HAEGTFTSDVSSYLEGQAAKEFIAWLVKGRGGG; C-terminal cyano DPP4 inhibitor moiety, amide) [Cmpd 4845] |  |  |  | 0.4
4 | HGEGTFTSDLSKQVQEEAVRLFVEFLKN-NH2 [Cmpd 5035] |  |  |  | 628
5 | CC[C@H](C)[C@H](NC(=O)[C@@H]1CCCN1C(=O)[C@@H](NC(=O)CNC(=O)CNC(=O)CNC(=O)[C@H](CO)NC(=O)[C@@H]1CCCN1C(=O)[C@H](CCCNC(=N)N)NC(=O)CNC(=O)[C@H](CCCCN)NC(=O)[C@@H](NC(=O)[C@H](CC(C)C)NC(=O)[C@H](Cc1c[nH]c2ccccc12)NC(=O)[C@H](C)NC(=O)[C@@H](NC(=O)[C@H](Cc1ccccc1)NC(=O)[C@H](CCC(=O)O)NC(=O)[C@H](CCCCN)NC(=O)[C@H](C)NC(=O)[C@H](C)NC(=O)[C@H](CCC(N)=O)NC(=O)CNC(=O)[C@H](CCC(=O)O)NC(=O)[C@H](CC(C)C)NC(=O)[C@H](Cc1ccc(O)cc1)NC(=O)[C@H](CO)NC(=O)[C@H](CO)NC(=O)[C@@H](NC(=O)[C@H](CC(=O)O)NC(=O)[C@H](CO)NC(=O)[C@@H](NC(=O)[C@H](Cc1ccccc1)NC(=O)[C@@H](NC(=O)CNC(=O)[C@H](CCC(=O)O)NC(=O)[C@H](C)NC(=O)[C@@H](N)Cc1c[nH]cn1)[C@@H](C)O)[C@@H](C)O)C(C)C)[C@@H](C)CC)C(C)C)[C@@H](C)CC)C(N)=O [Cmpd 4888] |  |  |  | 0.17
6 | CC[C@H](C)[C@H](NC(=O)[C@H](Cc1ccccc1)NC(=O)[C@H](CCC(=O)O)NC(=O)[C@H](CCCCN)NC(=O)[C@H](C)NC(=O)[C@H](C)NC(=O)[C@H](CCC(N)=O)NC(=O)CNC(=O)[C@H](CCC(=O)O)NC(=O)[C@H](CC(C)C)NC(=O)[C@H](Cc1ccc(O)cc1)NC(=O)[C@H](CO)NC(=O)[C@H](CO)NC(=O)[C@@H](NC(=O)[C@H](CC(=O)O)NC(=O)[C@H](CO)NC(=O)[C@@H](NC(=O)[C@H](Cc1ccccc1)NC(=O)[C@@H](NC(=O)CNC(=O)[C@H](CCC(=O)O)NC(=O)[C@H](C)NC(=O)[C@H](Cc1c[nH]cn1)NC(=O)COCCOCCNC(=O)COCCOCCNC(=O)[C@@H]1CCCN1C(=O)[C@H](C)NC(CCc1ccccc1)C(=O)O)[C@@H](C)O)[C@@H](C)O)C(C)C)C(=O)N[C@@H](C)C(=O)N[C@@H](Cc1c[nH]c2ccccc12)C(=O)N[C@@H](CC(C)C)C(=O)N[C@H](C(=O)N[C@@H](CCCCN)C(=O)NCC(=O)N[C@@H](CCCNC(=N)N)C(N)=O)C(C)C (stereo partly drawn) [Cmpd 4984, (R,S)-1-[N2-(1-carboxy-3-phenylpropyl)-L-ala]-L-pro-ado-ado-GLP-1-(7-36) amide] | increased plasma stability |  |  | 
7 | HGEGTFTSDVTQQLEEEAVRLFIEWLKQGGPSSGAPPPS-NH2 [Cmpd 5099] | increased plasma stability |  | increased plasma stability | 1.29
8 | HGEGTFTSDLVKILEAEAVRKFIEFLKN-NH2 [Cmpd 5052] |  |  |  | 4.5
9 | CC[C@H](C)[C@H](NC(=O)[C@H](Cc1ccccc1)NC(=O)[C@H](CCC(=O)O)NC(=O)[C@H](CCCCN)NC(=O)[C@H](C)NC(=O)[C@H](C)NC(=O)[C@H](CCC(N)=O)NC(=O)CNC(=O)[C@H](CCC(=O)O)NC(=O)[C@H](CC(C)C)NC(=O)[C@H](Cc1ccc(O)cc1)NC(=O)[C@H](CO)NC(=O)[C@H](CO)NC(=O)[C@@H](NC(=O)[C@H](CC(=O)O)NC(=O)[C@H](CO)NC(=O)[C@@H](NC(=O)[C@H](Cc1ccccc1)NC(=O)[C@@H](NC(=O)CNC(=O)[C@H](CCC(=O)O)NC(=O)[C@H](C)NC(=O)[C@H](Cc1c[nH]cn1)NC(=O)COCCOCCN)[C@@H](C)O)[C@@H](C)O)C(C)C)C(=O)N[C@@H](C)C(=O)N[C@@H](Cc1c[nH]c2ccccc12)C(=O)N[C@@H](CC(C)C)C(=O)N[C@H](C(=O)N[C@@H](CCCCN)C(=O)NCC(=O)N[C@@H](CCCNC(=N)N)C(N)=O)C(C)C [Cmpd 4992] | increased plasma stability |  | increased plasma stability | 
